{"source": "EPA's ToxValDB 9.5 (doi:10.2903/j.efsa.2020.5755)", "key": {"Canidae": {"tested_on": "Canidae", "conditions": "chronic; duration: 1 years; Dog Other"}, "Tagia sp.": {"tested_on": "Tagia sp.", "conditions": "chronic/long-term; growth"}, "Daphnia magna": {"tested_on": "Daphnia magna", "conditions": "chronic/long-term; duration: 28 days; reproduction"}, "Colinus virginianus": {"tested_on": "Colinus virginianus", "conditions": "reproduction developmental"}, "Landoltia sp.": {"tested_on": "Landoltia sp.", "conditions": "chronic/long-term; duration: 7 days; frond number"}, "Xenopus laevis": {"tested_on": "Xenopus laevis", "conditions": "chronic/long-term, development"}, "Folsomia candida": {"tested_on": "Folsomia candida", "conditions": "chronic/long-term; duration: 28 days; reproduction"}, "Rattus norvegicus": {"tested_on": "Rattus norvegicus", "conditions": "for LD50: acute, mortality"}, "Oncorhynchus mykiss": {"tested_on": "Oncorhynchus mykiss", "conditions": "acute; duration: 96 hours; mortality"}, "Typhlodromus pyri": {"tested_on": "Typhlodromus pyri", "assay": "LR50; higher = less toxic", "conditions": "mortality"}, "Coturnix japonica": {"tested_on": "Coturnix japonica", "conditions": "acute; oral; mortality"}, "Neomysis kadiakensis": {"tested_on": "Neomysis kadiakensis", "conditions": "chronic/long-term; duration: 39 days; other"}, "Anas platyrhynchos": {"tested_on": "Anas platyrhynchos", "conditions": "reproductive"}, "Pimephales promelas": {"tested_on": "Pimephales promelas", "conditions": "chronic/long-term; reproduction"}, "Apis mellifera": {"tested_on": "Apis mellifera", "conditions": "acute, mortality"}}, "data": [{"smiles": "S=C1NCCN1", "note": "[4,5-Dihydro-2-mercaptoimidazole]", "values": [{"measurement": "NOAEL", "setting": "Canidae", "result": 0.2, "unit": "mg/kg-day"}, {"measurement": "NOEC", "setting": "Tagia sp.", "result": 24, "unit": "mg/kg"}, {"measurement": "NOEC", "setting": "Daphnia magna", "result": 2000, "unit": "µg/L"}, {"measurement": "NOEL", "setting": "Colinus virginianus", "result": 1.8, "unit": "mg/kg-day"}, {"measurement": "NOEC", "setting": "Landoltia sp.", "result": 960000, "unit": "µg/L"}, {"measurement": "NOEC", "setting": "Xenopus laevis; duration: 28 days", "result": 10000, "unit": "µg/L"}, {"measurement": "NOEC", "setting": "Xenopus laevis; duration: 90 days", "result": 1000, "unit": "µg/L"}, {"measurement": "NOEC", "setting": "Folsomia candida", "result": 10.6, "unit": "mg/kg"}, {"measurement": "NOAEL", "setting": "Rattus norvegicus; chronic", "result": 2, "unit": "mg/kg-day"}, {"measurement": "NOAEL", "setting": "Rattus norvegicus; developmental, development", "result": 5, "unit": "mg/kg-day"}, {"measurement": "NOAEL", "setting": "Rattus norvegicus; reproduction developmental", "result": 0.2, "unit": "mg/kg-day"}]}, {"smiles": "S=C1SSC2=NCCN12", "note": "[5,6-Dihydro-3H-imidazo[2,1-c]-1,2,4-dithiazole-3-thione]", "values": [{"measurement": "NOEC", "setting": "Tagia sp.", "result": 20, "unit": "mg/kg"}, {"measurement": "LD50", "setting": "Rattus norvegicus; oral", "result": 240, "unit": "mg/kg-day"}]}, {"smiles": "O=C1NCCN1", "note": "[Ethylene urea]", "values": [{"measurement": "LC50", "setting": "Oncorhynchus mykiss", "result": "> 122", "unit": "µg/mL"}, {"measurement": "LD50", "setting": "Rattus norvegicus; oral", "result": "> 5000", "unit": "mg/kg-day"}, {"measurement": "NOAEL", "setting": "Rattus norvegicus; reproduction developmental, oral, reproduction", "result": 37, "unit": "mg/kg-day"}]}, {"smiles": "S=C([S-])NCCNC(=S)[S-].S=C([S-])NCCNC(=S)[S-].[Mn+2].[Zn+2]", "note": "[Mancozeb]", "values": [{"measurement": "LR50", "setting": "Typhlodromus pyri; chronic/long-term, duration: 14 days", "result": 107, "unit": "g/ha"}, {"measurement": "LR50", "setting": "Typhlodromus pyri; not reported", "result": 26.7, "unit": "g/ha"}, {"measurement": "NOEC", "setting": "Tagia sp.", "result": 10, "unit": "mg/kg"}, {"measurement": "LD50", "setting": "Coturnix japonica", "result": "> 2000", "unit": "mg/kg-day"}, {"measurement": "NOEC", "setting": "Neomysis kadiakensis", "result": 1.64, "unit": "µg/L"}, {"measurement": "LC50", "setting": "Oncorhynchus mykiss", "result": 0.074, "unit": "µg/mL"}, {"measurement": "NOEL", "setting": "Anas platyrhynchos", "result": 18.6, "unit": "mg/kg-day"}, {"measurement": "NOEC", "setting": "Pimephales promelas", "result": 1.35, "unit": "µg/L"}, {"measurement": "LD50", "setting": "Apis mellifera; dermal", "result": 162, "unit": "µg/piece"}, {"measurement": "LD50", "setting": "Apis mellifera; oral, unspecified", "result": 141, "unit": "µg/piece"}, {"measurement": "LD50", "setting": "Rattus norvegicus; oral", "result": "> 2000", "unit": "mg/kg-day"}, {"measurement": "NOAEL", "setting": "Rattus norvegicus; chronic", "result": 2, "unit": "mg/kg-day"}, {"measurement": "NOAEL", "setting": "Rattus norvegicus; subchronic, duration: 90 days, oral, clinical chemistry", "result": 6.8, "unit": "mg/kg-day"}]}]}
